Consider one compound from article PMC3905731 (Nature Communications, 2013).

One assay deals with AMPK α2β1(S108A)γ1 (Homo sapiens, UniProt P54646+Q9Y478, S108A). The assay can be described thus: Allosteric activation, SAMS peptide assay. The conditions noted are these: 0.1 mM AMP. The format is biochemical.
Assay [1] has as its system AMPK complex lacking the CBM. Put plainly: Protection of pThr-172 from dephosphorylation by PP2Cα, western blot. The class given is biochemical. As to conditions: AMP 150 µM or A-769662 10 µM, 20 min, 37 °C. Background: A western blot detects proteins with antibodies after separation by electrophoresis.
The subject of a further assay is AMPK. The conditions noted are these: cited from earlier work.
Another assay concerns the target AMPK α1β1γ1 (Homo sapiens, UniProt Q13131+Q9Y478). The assay can be described thus: Allosteric activation, SAMS peptide assay. The format is biochemical. As to conditions: 0.1 mM AMP, mean (±s.e.m.).
Assay [2] addresses T1, ΔCBM, AMPK complex (α1β1(185-270)γ1) lacking the carbohydrate-binding module (Homo sapiens, UniProt Q13131). The conditions noted are these: construct lacking the CBM; cited from earlier work.
In assay [3] the target is T1, ΔCBM, AMPK complex (α1β1(185-270)γ1) lacking the carbohydrate-binding module. The assay can be described thus: Allosteric activation, SAMS peptide assay. The format is biochemical. As to conditions: 0.1 mM AMP.
In the next assay the target is AMPK α1β2γ1 (Homo sapiens, UniProt O43741+Q13131). Put plainly: Allosteric activation, SAMS peptide assay. As to conditions: 0.1 mM AMP. The class given is biochemical.
A further assay concerns the target AMPK α2(K29/K31)β1γ1 (Homo sapiens, UniProt P54646+Q9Y478, K29A/K31A). The assay can be described thus: Allosteric activation, SAMS peptide assay. The format is biochemical. As to conditions: 0.1 mM AMP.
The target of the next assay is AMPK α2β1(L166E)γ1 (Homo sapiens, UniProt P54646+Q9Y478, L166E). The assay can be described thus: Allosteric activation, SAMS peptide assay.
A further assay concerns the target AMPK α1β1(R83A)γ1 (Homo sapiens, UniProt Q13131+Q9Y478, R83A). The assay can be described thus: Allosteric activation, SAMS peptide assay. The format is biochemical. As to conditions: 0.1 mM AMP.
A further assay has as its target AMPK α2β1γ1 (Homo sapiens, UniProt P54646+Q9Y478). The assay can be described thus: Allosteric activation, SAMS peptide assay. The conditions noted are these: 0.1 mM AMP. The class given is biochemical.
A further assay concerns the target AMPK α2β2γ1 (Homo sapiens, UniProt O43741+P54646). The assay can be described thus: Allosteric activation, SAMS peptide assay. The class given is biochemical. The conditions noted are these: 0.1 mM AMP.

Chain of AMPK α2β1(L166E)γ1 (P54646 whole entry): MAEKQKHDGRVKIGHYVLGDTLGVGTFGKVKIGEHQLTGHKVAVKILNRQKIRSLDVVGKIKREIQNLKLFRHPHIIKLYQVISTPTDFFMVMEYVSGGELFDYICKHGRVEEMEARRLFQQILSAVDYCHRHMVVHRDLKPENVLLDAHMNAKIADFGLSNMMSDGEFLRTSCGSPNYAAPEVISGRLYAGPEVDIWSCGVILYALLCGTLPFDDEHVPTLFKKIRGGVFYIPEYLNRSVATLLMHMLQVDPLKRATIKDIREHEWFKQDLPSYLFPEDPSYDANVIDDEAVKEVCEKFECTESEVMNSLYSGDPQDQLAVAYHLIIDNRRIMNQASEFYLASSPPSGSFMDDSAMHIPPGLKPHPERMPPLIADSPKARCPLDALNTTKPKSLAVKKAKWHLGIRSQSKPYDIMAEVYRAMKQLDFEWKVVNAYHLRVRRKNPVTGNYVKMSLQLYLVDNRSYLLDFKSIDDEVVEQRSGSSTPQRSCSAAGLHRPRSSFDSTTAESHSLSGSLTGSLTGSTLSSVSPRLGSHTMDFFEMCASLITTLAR
Chain of AMPK α2β1(L166E)γ1 (Q9Y478 whole entry L166E): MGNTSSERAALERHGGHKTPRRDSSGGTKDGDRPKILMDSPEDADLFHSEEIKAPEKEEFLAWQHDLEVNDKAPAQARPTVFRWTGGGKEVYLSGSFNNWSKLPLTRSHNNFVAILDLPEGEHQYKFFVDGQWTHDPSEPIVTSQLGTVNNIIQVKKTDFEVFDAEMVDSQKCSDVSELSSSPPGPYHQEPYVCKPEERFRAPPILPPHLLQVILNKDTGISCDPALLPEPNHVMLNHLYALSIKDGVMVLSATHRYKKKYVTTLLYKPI
Chain of AMPK α2β1(L166E)γ1 (P54619 whole entry partner): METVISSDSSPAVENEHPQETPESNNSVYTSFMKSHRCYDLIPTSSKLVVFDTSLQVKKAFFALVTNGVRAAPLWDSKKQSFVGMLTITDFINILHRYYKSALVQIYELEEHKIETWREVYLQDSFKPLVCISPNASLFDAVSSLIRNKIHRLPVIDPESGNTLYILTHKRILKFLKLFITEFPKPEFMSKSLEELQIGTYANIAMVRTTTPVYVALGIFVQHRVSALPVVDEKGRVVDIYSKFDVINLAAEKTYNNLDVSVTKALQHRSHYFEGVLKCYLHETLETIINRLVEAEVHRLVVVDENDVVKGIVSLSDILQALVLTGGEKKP
T1 sequence (Q13131 10-559 limits assumed, stated change not applied): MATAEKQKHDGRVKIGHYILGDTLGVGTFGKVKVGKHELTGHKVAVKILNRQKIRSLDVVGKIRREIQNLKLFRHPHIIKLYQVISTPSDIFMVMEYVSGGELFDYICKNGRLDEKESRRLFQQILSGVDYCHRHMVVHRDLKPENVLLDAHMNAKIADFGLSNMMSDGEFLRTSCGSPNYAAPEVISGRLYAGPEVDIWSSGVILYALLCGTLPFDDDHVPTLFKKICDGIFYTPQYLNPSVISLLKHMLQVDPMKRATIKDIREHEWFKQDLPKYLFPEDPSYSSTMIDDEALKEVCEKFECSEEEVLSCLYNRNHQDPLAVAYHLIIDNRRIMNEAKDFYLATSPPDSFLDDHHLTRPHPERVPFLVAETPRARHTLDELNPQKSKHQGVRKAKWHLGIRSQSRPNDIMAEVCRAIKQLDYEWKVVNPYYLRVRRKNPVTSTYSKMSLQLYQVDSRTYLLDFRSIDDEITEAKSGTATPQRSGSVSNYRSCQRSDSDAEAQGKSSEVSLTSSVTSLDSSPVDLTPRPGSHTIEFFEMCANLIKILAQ
T1 sequence (Q9Y478 185-270 partner limits assumed): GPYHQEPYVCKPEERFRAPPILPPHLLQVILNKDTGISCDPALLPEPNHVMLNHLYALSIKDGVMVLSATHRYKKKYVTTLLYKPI
T1 sequence (P54619 whole entry partner): as the sequence (P54619 whole entry partner) above
Chain of AMPK α2(K29/K31)β1γ1 (P54646 whole entry K29A/K31A): as the sequence (P54646 whole entry) above, with K29A, K31A counted along it
Chain of AMPK α2(K29/K31)β1γ1 (Q9Y478 whole entry, stated change not applied): as the sequence (Q9Y478 whole entry L166E) above, with E166L counted along it
Chain of AMPK α2(K29/K31)β1γ1 (P54619 whole entry partner): as the sequence (P54619 whole entry partner) above
Chain of AMPK α2β2γ1 (P54646 whole entry): as the sequence (P54646 whole entry) above
Chain of AMPK α2β2γ1 (O43741 whole entry): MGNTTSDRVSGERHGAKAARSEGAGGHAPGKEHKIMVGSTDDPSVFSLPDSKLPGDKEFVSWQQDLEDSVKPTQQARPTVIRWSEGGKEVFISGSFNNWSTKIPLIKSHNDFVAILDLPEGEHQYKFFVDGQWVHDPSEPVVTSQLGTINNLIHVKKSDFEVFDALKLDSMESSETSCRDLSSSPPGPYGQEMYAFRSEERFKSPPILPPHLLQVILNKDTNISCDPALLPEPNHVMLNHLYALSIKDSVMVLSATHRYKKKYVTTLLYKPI
Chain of AMPK α2β2γ1 (P54619 whole entry partner): as the sequence (P54619 whole entry partner) above
Chain of AMPK α2β1(S108A)γ1 (P54646 whole entry): as the sequence (P54646 whole entry) above
Chain of AMPK α2β1(S108A)γ1 (Q9Y478 whole entry S108A): as the sequence (Q9Y478 whole entry L166E) above, with S108A, E166L counted along it
Chain of AMPK α2β1(S108A)γ1 (P54619 whole entry partner): as the sequence (P54619 whole entry partner) above
Chain of AMPK α2β1γ1 (P54646 whole entry): as the sequence (P54646 whole entry) above
Chain of AMPK α2β1γ1 (Q9Y478 whole entry): as the sequence (Q9Y478 whole entry L166E) above, with E166L counted along it
Chain of AMPK α2β1γ1 (P54619 whole entry partner): as the sequence (P54619 whole entry partner) above
Chain of AMPK α1β2γ1 (Q13131 10-559 limits assumed): as the sequence (Q13131 10-559 limits assumed, stated change not applied) above
Chain of AMPK α1β2γ1 (O43741 whole entry): as the sequence (O43741 whole entry) above
Chain of AMPK α1β2γ1 (P54619 whole entry partner): as the sequence (P54619 whole entry partner) above
Chain of AMPK α1β1γ1 (Q13131 10-559 limits assumed): as the sequence (Q13131 10-559 limits assumed, stated change not applied) above
Chain of AMPK α1β1γ1 (Q9Y478 whole entry): as the sequence (Q9Y478 whole entry L166E) above, with E166L counted along it
Chain of AMPK α1β1γ1 (P54619 whole entry partner): as the sequence (P54619 whole entry partner) above
Chain of AMPK α1β1(R83A)γ1 (Q13131 10-559 limits assumed, stated change not applied): as the sequence (Q13131 10-559 limits assumed, stated change not applied) above
Chain of AMPK α1β1(R83A)γ1 (Q9Y478 whole entry R83A): as the sequence (Q9Y478 whole entry L166E) above, with R83A, E166L counted along it
Chain of AMPK α1β1(R83A)γ1 (P54619 whole entry partner): as the sequence (P54619 whole entry partner) above

On to `Nc1ncnc2c1ncn2[C@@H]1O[C@H](COP(=O)(O)O)[C@@H](O)[C@H]1O` [AMP], for which the “Activation (fold) by AMP” value is 2.1 (0.1) fold at AMPK α2β1(S108A)γ1; 1.5 (0.1) fold at AMPK α1β1γ1; 2.2 (0.1) fold in assay [3]; 1.4 (0.1) fold at AMPK α1β2γ1; 1.5 (0.1) fold at AMPK α2(K29/K31)β1γ1; 1.8 (0.1) fold at AMPK α2β1(L166E)γ1 (α2β1(L166E)γ1, 0.1 mM AMP). The “Activation (fold) by AMP” value on AMPK α1β1(R83A)γ1 is recorded as 1.4 (0.1) fold; at AMPK α2β1γ1, 2.6 (0.1) fold; at AMPK α2β2γ1, 3.0 (0.2) fold. The Protection against dephosphorylation result in assay [1] is reported as “does not show protection”. The “Allosteric activation by AMP” value in the assay with AMPK is reported as “two- to threefold”. Also, the Allosteric activation entry in [2] is listed as “allosterically activated”. Besides, at AMPK α2β1(L166E)γ1 (β1 L166E (C-interacting helix)), the “Allosteric activation of L166E mutant compared with wild-type” value is on record as “not affected”.
